Measured values from US7972831B2, “Lipases from thermophilic anaerobes” (Novozymes A/S, priority 2004, dated 2011).
Several values for one entry are separate records, joined by “and”; a condition that tells them apart may be missing. Equal entries are not always repeated. Structures can show the parent of a compound that is named as a salt.

Tests used:
[1] = tested on: lipase of SEQ ID NO: 2; assay: Effect of inhibitors on lipase activity; format: biochemical, Thermoanaerobacter thermohydrosulfuricus; conditions: for effect on the activity of the lipase: up to 10 mM; for inactivation of the lipase: 0.1-1 mM
[2] = tested on: lipase of SEQ ID NO: 4; assay: Effect of inhibitors on lipase activity; format: biochemical, Caldanaerobacter subterraneus subsp. tengcongensis; conditions: for effect on the activity of the lipase: up to 10 mM; for inactivation of the lipase: 0.1-1 mM
[3] = tested on: lipase of SEQ ID NO: 2; assay: Substrate specificity with triacylglycerols; format: biochemical, Thermoanaerobacter thermohydrosulfuricus; conditions: triacylglycerol 10 mM, pH 8.0, 25 h at 70° C.
Description: The lipase of SEQ ID NO: 2 was tested by reaction with various triacylglycerols 10 mM (pH 8.0) as substrates: for 25 h at 70° C. Similar results were obtained with the lipase of SEQ ID NO: 4.

[4] = tested on: lipase of SEQ ID NO: 2; assay: Substrate specificity for pNP-esters; format: biochemical, Thermoanaerobacter thermohydrosulfuricus; conditions: pNP-ester 1 mM, pH 8.0, 10 min at 70° C.
[5] = tested on: lipase of SEQ ID NO: 2; assay: Effect of solvents on lipase activity; format: biochemical, Thermoanaerobacter thermohydrosulfuricus; conditions: solvent up to 50% by volume
[6] = tested on: lipase; assay: Effects of metal ions on lipase activity; format: biochemical; conditions: metal ions up to 10 mM
Source text: The activity was decreased by the following ions: Zn2+, Fe2+, Fe3+ and Cr3+.

[7] = tested on: lipase of SEQ ID NO: 2; assay: Enantioselectivity of ester hydrolysis; format: biochemical, Thermoanaerobacter thermohydrosulfuricus
Description: The (S)-alcohols were formed. The lipase was more enantioselective towards butynol butyrate than towards butynol acetate. Over time the conversion increased for all four substrates and reached above 20-30% after 24 h of reactions time. Over time in the contrast to the conversion the enantioselectivity of the enzyme towards both substrates decreased for butynol butyrate from 16.7 to 8.06 and for butynol acetate from 9.15 to 2.65 after 40 h of reactions time. […] For two other substrates the enantioselectivity of the lipase (E≧1) was constant over time.

[8] = tested on: lipase from T. thermohydrosulfuricum (SEQ ID NO: 2); assay: Alcoholysis of triacylglycerols (positional specificity towards triglycerides); format: biochemical, Thermoanaerobacter thermohydrosulfuricus; conditions: for DG 1,2- 2,3- / DG 1,3- / FA (fatty acid) / MG 1- 3- / TG (remaining substrate): alcoholysis with ethanol in acetone, 7 h at 65° C.
Description: Alcoholysis of various triacylglycerols catalyzed by the lipase of SEQ ID NO: 2 were tested. All substrates were alcoholyzed by the lipase. […] For other substrates the conversions were above 40%. The lipase catalysed the synthesis of 1,3-diacylglycerides and 1- and 3-monoacylglycerides from triacylglycerides at highest rate. No sn2-monoglyceride was produced. […] With the length of the ester bonds the 2-positional specificity of the protein increased.
The positional specificity of the lipase from T. thermohydrosulfuricum (SEQ ID NO: 2) was tested towards the following triglycerides (TG, triacylglycerols): trilaurin (C12), trimyristin (C14), tripalmitin (C16), tristearin (C18), Triolein (C18:1). Each TG (3 mmol) was dissolved in organic solvent (2 ml acetone) and pre-equilibrated at 65° C. for 15 min, 400 rpm. Dry ethanol (3 mmol) was added and reaction mixture was incubated at 65° C. for 15 min, 400 rpm. Lipase (10% based on TG weight) was added to start reaction. Reaction was carried out in a 4-ml screw-capped vial and the reaction mixture was mixed with magnetic stirrer (400 rpm). Aliquot amount of reaction mixture (20 μl) was periodically withdrawn and diluted with chloroform (80 μl) to appropriate dilution, followed by analysis with latroscan to determine acylglycerol composition.
Changes in glycerides composition of the reaction medium during reaction were quantitatively determined by TLC/FID using latroscan analytical methods (latroscan, latron Laboratories, Inc., Tokyo, Japan). Before analysis, a blank of the chromarod was scanned. After treating chromarod with boric acid (3%) and drying for 5 min, 0.1 μl of the reaction medium (diluted in chloroform at appropriate dilution) is spotted onto the chromarod and the spotted sample was developed for 10 cm in a mixture of benzene:chloroform:acetic acid (50:30:0.5, by vol) for 35 min. After drying, the chromarod in an oven at 110° C. for 5 min, scanning is performed at a hydrogen flow rate of 160 ml/min and an air flow rate of 2.01/min to produce a chromatogram.
The results of the alcoholysis of the triacylglycerols catalysed by the lipase from […] after 7 h reactions time at 65° C. are given below as % of remaining substrate (TG) and % of the following products: fatty acid (FA), diglycerides (DG, with 1,3-DG separated from 1,2- and 2,3-DG), monoglyceride (MG, with 2-MG separated from 1- and 3-MG).

[9] = tested on: lipase; assay: Effect of detergent ingredients on lipase activity; format: biochemical; conditions: 1.5 hours at 30° C., up to 10% by weight of compound
Description: The activity of the lipase was tested after incubation for 1.5 hours at 30° C. with up to 10% by weight of various compounds.

## O=C(O)c1cc[c]([Hg][OH])cc1 [pHMB]
[1]
  effect on the activity of the lipase: little effect
[2]
  effect on the activity of the lipase: little effect

## CCCCCCCCCC(=O)OCC(COC(=O)CCCCCCCCC)OC(=O)CCCCCCCCC [Tricaprin, Tricaprin (C10:0)]
[3]
  Relative activity: 15

## CCCCCC(=O)Oc1ccc([N+](=O)[O-])cc1 [pNP-caproate, pNP-caproate (C6:0)]
[4]
  Relative activity: 81

## CO [methanol]
[5]
  effect on the activity of the lipase: little effect

## [Al+3] [Al3+]
[6]
  lipase activity in the presence of metal ions: nearly unchanged

## NCCc1ccc(S(=O)(=O)F)cc1 [Pefablock]
[1]
  inactivation of the lipase: inactivated
[2]
  inactivation of the lipase: inactivated

## C[S+](C)[O-] [DMSO]
[5]
  effect on the activity of the lipase: little effect

## c1ccncc1 [pyridine]
[5]
  effect on the activity of the lipase: little effect

## butynol butyrate
[7]
  enantiopreference: (S)-preference
  lipase activity towards substrate: active
[7]; after 40 h of reactions time
  E-value (enantioselectivity): 8.06
[7]; initial value
  E-value (enantioselectivity): 16.7

## CN(C)C=O [dimethylformamide]
[5]
  effect on the activity of the lipase: little effect

## CCCCCCCC(=O)Oc1ccc([N+](=O)[O-])cc1 [pNP-caprylate, pNP-caprylate (C8:0)]
[4]
  Relative activity: 90

## [Rb+] [Rb+]
[6]
  lipase activity in the presence of metal ions: nearly unchanged

## [Mn+2] [Mn2+]
[6]
  lipase activity in the presence of metal ions: nearly unchanged

## CC(=O)OCC(COC(C)=O)OC(C)=O [Triacetin, Triacetin (C2:0)]
[3]
  Relative activity: 5

## CCCCCCCCCC(=O)Oc1ccc([N+](=O)[O-])cc1 [pNP-caprate, pNP-caprate (C10:0)]
[4]
  Relative activity: 100

## CC(=O)OC(C)c1ccccc1 (centres unmarked) [1-phenyl-1-ethyl-acetate]
[7]
  lipase activity towards substrate: active

## [Cu+2] [Cu2+]
[6]
  lipase activity in the presence of metal ions: nearly unchanged

## OCCS [b-mercaptoethanol]
[1]
  effect on the activity of the lipase: little effect
[2]
  effect on the activity of the lipase: little effect

## CCCCCCCCCCCC(=O)OCC(COC(=O)CCCCCCCCCCC)OC(=O)CCCCCCCCCCC [Trilaurin, Trilaurin (C12:0)]
[3]
  Relative activity: 11
[8]
  DG 1,2- 2,3-: 6%
  DG 1,3-: 12%
  FA (fatty acid): 2%
  MG 1- 3-: 22%
  TG (remaining substrate): 58%

## CCCCCCCCCCCCCCCCCC(=O)OCC(COC(=O)CCCCCCCCCCCCCCCCC)OC(=O)CCCCCCCCCCCCCCCCC [Tristearin, Tristearin (C18:0)]
[3]
  Relative activity: 9
[8]; alcoholysis of triacylglycerol
  conversion: 67%
[8]
  DG 1,3-: 48%
  FA (fatty acid): 10%
  MG 1- 3-: 9%
  TG (remaining substrate): 33%

## CCO [ethanol]
[5]
  effect on the activity of the lipase: little effect

## CCCCCCCCCCCCOS(=O)(=O)[O-].[Na+] [SDS]
[9]
  effect on activity after incubation: full enzyme inhibition

## CC#N [acetonitrile]
[5]
  effect on the activity of the lipase: little effect

## CC(=O)Oc1ccc([N+](=O)[O-])cc1 [pNP-acetate, pNP-acetate (C2:0)]
[4]
  Relative activity: 9

## [Ni+2] [Ni2+]
[6]
  lipase activity in the presence of metal ions: nearly unchanged

## NC(N)=O [urea]
[1]
  effect on the activity of the lipase: little effect
[2]
  effect on the activity of the lipase: little effect

## CC(C)(C)O [tert-butanol]
[5]
  effect on the activity of the lipase: little effect

## CCCCCC(=O)OCC(COC(=O)CCCCC)OC(=O)CCCCC [Tricaproin, Tricaproin (C6:0)]
[3]
  Relative activity: 74

## O=S(=O)(F)Cc1ccccc1 [PMSF]
[1]
  inactivation of the lipase: inactivated
[2]
  inactivation of the lipase: inactivated

## CCCCCCCCCCCC(=O)Oc1ccc([N+](=O)[O-])cc1 [pNP-laurate, pNP-laurate (C12:0)]
[4]
  Relative activity: 84

## CCCCCCCCCCCCCCCC(=O)Oc1ccc([N+](=O)[O-])cc1 [pNP-palmitate, pNP-palmitate (C16:0)]
[4]
  Relative activity: 32

## CCCCCCCC(=O)OCC(COC(=O)CCCCCCC)OC(=O)CCCCCCC [Tricaprylin, Tricaprylin (C8:0)]
[3]
  Relative activity: 100

## [Co+2] [Co2+]
[6]
  lipase activity in the presence of metal ions: nearly unchanged

## [Ca+2] [Ca2+]
[6]
  lipase activity in the presence of metal ions: nearly unchanged

## [Na+] [Na+]
[6]
  lipase activity in the presence of metal ions: nearly unchanged

## [Ag+] [Ag+]
[6]
  lipase activity in the presence of metal ions: nearly unchanged

## CCCCCCCCCCCCCC(=O)OCC(COC(=O)CCCCCCCCCCCCC)OC(=O)CCCCCCCCCCCCC [Trimyristin, Trimyristin (C14:0)]
[3]
  Relative activity: 8
[8]
  DG 1,2- 2,3-: 2%
  DG 1,3-: 12%
  FA (fatty acid): 1%
  MG 1- 3-: 19%
  TG (remaining substrate): 66%

## [K+] [K+]
[6]
  lipase activity in the presence of metal ions: nearly unchanged

## [Fe+3] [Fe3+]
[6]
  lipase activity in the presence of metal ions: decreased

## butynol acetate
[7]
  enantiopreference: (S)-preference
  lipase activity towards substrate: active
[7]; after 40 h of reactions time
  E-value (enantioselectivity): 2.65
[7]; initial value
  E-value (enantioselectivity): 9.2 and 9.15

## [Sr+2] [Sr2+]
[6]
  lipase activity in the presence of metal ions: nearly unchanged

## CCCC(=O)OCC(COC(=O)CCC)OC(=O)CCC [Tributyrin, Tributyrin (C4:0)]
[3]
  Relative activity: 10

## Triolein (C18:1)
[3]
  Relative activity: 12
[8]
  DG 1,3-: 18%
  FA (fatty acid): 2%
  MG 1- 3-: 17%
  TG (remaining substrate): 63%

## [Fe+2] [Fe2+]
[6]
  lipase activity in the presence of metal ions: decreased

## CCCCCCCCCCCCCCCC(=O)OCC(COC(=O)CCCCCCCCCCCCCCC)OC(=O)CCCCCCCCCCCCCCC [Tripalmitin, Tripalmitin (C16:0)]
[3]
  Relative activity: 22
[8]
  DG 1,2- 2,3-: 1%
  DG 1,3-: 13%
  FA (fatty acid): 3%
  MG 1- 3-: 18%
  TG (remaining substrate): 65%

## [Cr+3] [Cr3+]
[6]
  lipase activity in the presence of metal ions: decreased

## O[C@@H](CS)[C@@H](O)CS [DTT]
[1]
  effect on the activity of the lipase: little effect
[2]
  effect on the activity of the lipase: little effect

## O=C(O)CI [iodo-acetate]
[1]
  effect on the activity of the lipase: little effect
[2]
  effect on the activity of the lipase: little effect

## CC(=O)OC(C)Cc1ccccc1 (centres unmarked) [1-phenyl-2-propyl-acetate]
[7]
  lipase activity towards substrate: active

## CC(C)=O [acetone]
[5]
  effect on the activity of the lipase: little effect

## CCCCCCCCCCCCCC(=O)Oc1ccc([N+](=O)[O-])cc1 [pNP-myristate, pNP-myristate (C14:0)]
[4]
  Relative activity: 68

## N=C(N)N [guanidine hydrochloride]
[1]
  effect on the activity of the lipase: little effect
[2]
  effect on the activity of the lipase: little effect

## [Zn+2] [Zn2+]
[6]
  lipase activity in the presence of metal ions: decreased

## CC(C)O [isopropanol]
[5]
  effect on the activity of the lipase: little effect

## CCCC(=O)Oc1ccc([N+](=O)[O-])cc1 [pNP-butyrate, pNP-butyrate (C4:0)]
[4]
  Relative activity: 57

## CCCCCCCCCCCCCCCCCC(=O)Oc1ccc([N+](=O)[O-])cc1 [pNP-stearate, pNP-stearate (C18:0)]
[4]
  Relative activity: 8

## [Mg+2] [Mg2+]
[6]
  lipase activity in the presence of metal ions: nearly unchanged
